One data set deals with injured skin. The settings on record: topical application at concentrations of 2-5%; cited from earlier work.
For data set [1] the following is noted: no adverse reactions in any species even at large doses; cited from earlier work.
In data set [2] the test system is Human umbilical vein endothelial cells (HUVEC). In words: Effect of panthenol citrate oligomers on cell viability, HUVEC. The settings on record: higher concentrations (1 mg/ml), 24 hours. It counts as cell-based. The protocol:
Human umbilical vein endothelial cells (HUVEC) (Lonza, Walkersville, Md.), adult human epidermal keratinocytes (HEKa) (Gibco, Carlsbad, Calif.), and human dermal fibroblast (HDF) (Lonza, Walkersville, Md.) were cultured in SmGM-2, Keratinocyte-SFM and DMEM, respectively, in a humidified incubator equilibrated with 5% CO2 at 37° C. Cells were seeded at a density of 1×10^4 cells/ml in 96-well tissue culture plates.

Consider `CC(C)(CO)C(O)C(=O)NCCCO` (racemic) [panthenol, DL-panthenol], for which the “regeneration of injured skin” value in the data set with injured skin is reported as “stimulate the regeneration of injured skin”. Moreover, the toxicities result in data set [1] is listed as “negligible”.

`O=C(O)CC(O)(CC(=O)O)C(=O)O` [citric acid, Citric acid]: in data set [2], the HUVEC cell survival entry is “died within 24 hours”.

The values are drawn from patent US10406385B2 (Northwestern University, priority 2014, dated 2019).
